Here are results for 1 compound from ChEMBL document CHEMBL1155268, “Synthesis of amyloid beta peptide 1-42 (E22Delta) click peptide: pH-triggered in situ production of its native form” (Bioorg Med Chem, 2009).

In brackets after ≈: the same amount, converted by molar mass.

A short description of the data set: Solubility in water by HPLC. Format: physicochemical.

Broadly, the solubility is the concentration that dissolves in the medium under given conditions. Lower therefore signals a poorly soluble substance. On to `CC[C@H](C)[C@H](NC(=O)[C@H](C)NC(=O)CNC(=O)[C@H](CCCCN)NC(=O)[C@H](CC(N)=O)NC(=O)[C@H](CO)NC(=O)CNC(=O)[C@@H](NC(=O)[C@H](CC(=O)O)NC(=O)[C@H](C)NC(=O)[C@H](Cc1ccccc1)NC(=O)[C@H](Cc1ccccc1)NC(=O)[C@@H](NC(=O)[C@H](CC(C)C)NC(=O)[C@H](CCCCN)NC(=O)[C@H](CCC(N)=O)NC(=O)[C@H](Cc1cnc[nH]1)NC(=O)[C@H](Cc1cnc[nH]1)NC(=O)[C@@H](NC(=O)[C@H](CCC(=O)O)NC(=O)[C@H](Cc1ccc(O)cc1)NC(=O)CNC(=O)[C@H](CO)NC(=O)[C@H](CC(=O)O)NC(=O)[C@H](Cc1cnc[nH]1)NC(=O)[C@H](CCCNC(=N)N)NC(=O)[C@H](Cc1ccccc1)NC(=O)[C@H](CCC(=O)O)NC(=O)[C@H](C)NC(=O)[C@@H](N)CC(=O)O)C(C)C)C(C)C)C(C)C)C(=O)N[C@H](C(=O)NCC(=O)N[C@@H](CC(C)C)C(=O)N[C@@H](CCSC)C(=O)N[C@H](C(=O)NCC(=O)NCC(=O)N[C@H](C(=O)N[C@H](C(=O)N[C@H](C(=O)N[C@@H](C)C(=O)O)[C@@H](C)CC)C(C)C)C(C)C)C(C)C)[C@@H](C)CC`, for which the solubility turned out to be 1500 µg/mL (≈ 342 µM).
